# From ChEMBL document CHEMBL1146130, “Benzoxazole benzenesulfonamides as allosteric inhibitors of fructose-1,6-bisphosphatase” (Bioorg Med Chem Lett, 2006)
# Molecular target: T1, Fructose-1,6-bisphosphatase 1 (Homo sapiens, UniProt P09467)
# T1 sequence (P09467 whole entry): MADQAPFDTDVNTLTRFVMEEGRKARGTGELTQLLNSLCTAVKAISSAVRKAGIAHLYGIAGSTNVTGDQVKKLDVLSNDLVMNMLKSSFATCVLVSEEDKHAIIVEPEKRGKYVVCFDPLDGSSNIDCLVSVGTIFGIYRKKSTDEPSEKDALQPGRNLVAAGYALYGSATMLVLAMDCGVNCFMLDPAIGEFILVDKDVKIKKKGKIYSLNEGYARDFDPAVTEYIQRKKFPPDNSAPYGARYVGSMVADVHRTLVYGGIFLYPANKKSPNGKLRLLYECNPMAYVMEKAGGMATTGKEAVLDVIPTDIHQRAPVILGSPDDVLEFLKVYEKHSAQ
# Test: Inhibition of human FBPase1
# Conditions: not given
row,IC50,SMILES
1,2.5 µM,O=S(=O)(Nc1nc2cc(Cl)ccc2o1)c1ccc2ccccc2c1
2,7.7 µM,O=S(=O)(Nc1nc2cc(Cl)ccc2o1)c1ccccc1
3,> 50 µM,Cc1cccc(Cl)c1S(=O)(=O)Nc1nc2cc(Cl)ccc2o1
4,10 µM,Cc1ccc2nc(NS(=O)(=O)c3cc(Cl)ccc3Cl)oc2c1
5,24 µM,CC(C)(C)c1ccc(S(=O)(=O)Nc2nc3cc(Cl)ccc3o2)cc1
6,2.8 µM,O=S(=O)(Nc1nc2cc(Cl)ccc2o1)c1ccc(F)cc1
7,> 50 µM,CC(C)(C)c1ccc(COc2cccc(S(=O)(=O)Nc3nc4cc(Cl)ccc4o3)c2)cc1
8,> 50 µM,CS(=O)(=O)Nc1nc2cc(Cl)ccc2o1
9,> 50 µM,O=S(=O)(Nc1nc2c(C3=CCNC=C3)cccc2o1)c1cc(Cl)ccc1Cl
10,6.2 µM,Cc1ccc(S(=O)(=O)Nc2nc3cc(Cl)ccc3o2)cc1
11,6.4 µM,Cc1ccc2oc(NS(=O)(=O)c3cc(Cl)ccc3Cl)nc2c1
12,1.8 µM,O=[N+]([O-])c1cccc(S(=O)(=O)Nc2nc3cc(Cl)ccc3o2)c1
13,1.3 µM,O=S(=O)(Nc1nc2cc(Cl)ccc2o1)c1cccc(Cl)c1
14,4 µM,O=S(=O)(Nc1nc2cc(-c3ccoc3)ccc2o1)c1cc(Cl)ccc1Cl
15,1.3 µM,COc1cc(-c2ccc(N)cc2)c2oc(NS(=O)(=O)c3cc(Cl)ccc3Cl)nc2c1
16,9.8 µM,O=S(=O)(Nc1nc2cc(Cl)ccc2o1)c1cccc(-c2ccccc2)c1
17,> 50 µM,CCCCS(=O)(=O)Nc1nc2cc(Cl)ccc2o1
18,13 µM,O=S(=O)(Nc1nc2cc(Cl)ccc2o1)c1cccs1
19,6.7 µM,O=S(=O)(Nc1nc2cc(Cl)ccc2o1)c1ccc(-c2ccoc2)cc1
20,2.6 µM,COc1cc(-c2cccc(CN)c2)c2oc(NS(=O)(=O)c3cc(Cl)ccc3Cl)nc2c1

row,IC50,SMILES
1,55 µM,Cc1cccc2oc(NS(=O)(=O)c3cc(Cl)ccc3Cl)nc12
2,9.4 µM,Cn1cnc(S(=O)(=O)Nc2nc3cc(Cl)ccc3o2)c1
3,6 µM,N#Cc1ccccc1S(=O)(=O)Nc1nc2cc(Cl)ccc2o1
4,7.8 µM,O=S(=O)(Nc1nc2cc(Cl)ccc2o1)c1ccc(OC(F)(F)F)cc1
5,> 50 µM,O=S(=O)(Nc1nc2cc(Cl)ccc2o1)c1c(Cl)cccc1Cl
6,> 50 µM,O=S(=O)(Nc1nc2c(I)cccc2o1)c1cc(Cl)ccc1Cl
7,3.4 µM,O=S(=O)(Nc1nc2cc(Cl)ccc2o1)c1ccc2cc3ccccc3cc2c1
8,1.9 µM,O=S(=O)(Nc1nc2cc(Br)ccc2o1)c1cc(Cl)ccc1Cl
9,8 µM,COc1ccc2nc(NS(=O)(=O)c3cc(Cl)ccc3Cl)oc2c1
10,12 µM,CCCC(=O)Nc1ccc(S(=O)(=O)Nc2nc3cc(Cl)ccc3o2)cc1
11,6.5 µM,O=S(=O)(Nc1nc2cc(Cl)ccc2o1)c1ccccc1Br
12,1.7 µM,COc1cc(-c2cccc(O)c2)c2oc(NS(=O)(=O)c3cc(Cl)ccc3Cl)nc2c1
13,4 µM,O=S(=O)(Nc1nc2cc(Cl)ccc2o1)c1ccc(-c2ccccc2)cc1
14,3.8 µM,O=S(=O)(Nc1nc2cc(Cl)ccc2o1)c1ccccc1-c1ccccc1
15,3.4 µM,O=S(=O)(Nc1nc2cc(Cl)ccc2o1)c1cc(Cl)ccc1Cl
16,1.8 µM,COc1cc(-c2ccc(O)cc2)c2oc(NS(=O)(=O)c3cc(Cl)ccc3Cl)nc2c1
17,32 µM,CC(C)(C)c1ccc2oc(NS(=O)(=O)c3cc(Cl)ccc3Cl)nc2c1
18,23 µM,O=S(=O)(Nc1nc2cc(Cl)ccc2o1)c1ccccc1-n1ccnc1
19,8.1 µM,O=S(=O)(Nc1nc2ccc(Cl)cc2o1)c1cc(Cl)ccc1Cl

# Test system: not listed separately
# Test: Oral bioavailability in rat at 5 mg/kg, po
# Assay type: ADME, organism-based
# Conditions: in vivo
row,bioavailability,SMILES
1,> 100%,O=S(=O)(Nc1nc2cc(Cl)ccc2o1)c1ccc2ccccc2c1

# Test system: not listed separately
# Test: Half life in rat at 5 mg/kg, po
# Assay type: ADME, organism-based
# Set-up: dose 5 mg/kg, route oral
# Conditions: in vivo
row,half-life,SMILES
1,450 min,O=S(=O)(Nc1nc2cc(Cl)ccc2o1)c1ccc2ccccc2c1

# Test system: not listed separately
# Test: Plasma clearance in rat at 5 mg/kg
# Assay type: ADME, organism-based
# Set-up: dose 5 mg/kg
# Conditions: not given
row,clearance,SMILES
1,0.667 mL/min/kg,O=S(=O)(Nc1nc2cc(Cl)ccc2o1)c1ccc2ccccc2c1
